Data: patent US8192962B2, “Processes for detecting toxic substances” (Daikin Industries, Ltd., priority 2001, dated 2012)

Tested on: Genes belonging to other category
Experiment: DNA chip mRNA expression in yeast, genes belonging to other category (Table 9)
Type: cell-based, Saccharomyces cerevisiae S288C
Procedure, shortened: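 S. cerevisiae S288C grown at 25° C in YPD were exposed in log phase for two hours to one toxic chemical at a growth-inhibiting, non-lethal concentration; untreated cells served as control. Poly(A) mRNA was reverse-transcribed with Cy3/Cy5-dUTP and hybridized to a whole-genome yeast DNA chip at 65° C for over 12 hours; values are fluorescence ratios versus untreated.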

Na2As [(1)]
The level of expressed mRNA in the presence of chemical substance/The level of expressed mRNA in the absence of chemical substance (yeast gene YAR010C): 0.8 | The level of expressed mRNA in the presence of chemical substance/The level of expressed mRNA in the absence of chemical substance (yeast gene YBL005W-A): 1.0 | The level of expressed mRNA in the presence of chemical substance/The level of expressed mRNA in the absence of chemical substance (yeast gene YBL041W): 1.2 | The level of expressed mRNA in the presence of chemical substance/The level of expressed mRNA in the absence of chemical substance (yeast gene YBL043W): 1.2 | The level of expressed mRNA in the presence of chemical substance/The level of expressed mRNA in the absence of chemical substance (yeast gene YBL078C): 2.3 | The level of expressed mRNA in the presence of chemical substance/The level of expressed mRNA in the absence of chemical substance (yeast gene YBR214W): 0.9 | The level of expressed mRNA in the presence of chemical substance/The level of expressed mRNA in the absence of chemical substance (yeast gene YCL020W): 1.1 | The level of expressed mRNA in the presence of chemical substance/The level of expressed mRNA in the absence of chemical substance (yeast gene YCL027W): 0.7 | The level of expressed mRNA in the presence of chemical substance/The level of expressed mRNA in the absence of chemical substance (yeast gene YCR004C): 1.7 | The level of expressed mRNA in the presence of chemical substance/The level of expressed mRNA in the absence of chemical substance (yeast gene YCR071C): 1.1 | The level of expressed mRNA in the presence of chemical substance/The level of expressed mRNA in the absence of chemical substance (yeast gene YCR088W): 0.9 | The level of expressed mRNA in the presence of chemical substance/The level of expressed mRNA in the absence of chemical substance (yeast gene YDL008W): 1.1 | The level of expressed mRNA in the presence of chemical substance/The level of expressed mRNA in the absence of chemical substance (yeast gene YDL238C): 0.7 | The level of expressed mRNA in the presence of chemical substance/The level of expressed mRNA in the absence of chemical substance (yeast gene YDR055W): 1.7 | The level of expressed mRNA in the presence of chemical substance/The level of expressed mRNA in the absence of chemical substance (yeast gene YDR084C): 0.9 | The level of expressed mRNA in the presence of chemical substance/The level of expressed mRNA in the absence of chemical substance (yeast gene YDR085C): 1.9 | The level of expressed mRNA in the presence of chemical substance/The level of expressed mRNA in the absence of chemical substance (yeast gene YDR104C): 0.8 | The level of expressed mRNA in the presence of chemical substance/The level of expressed mRNA in the absence of chemical substance (yeast gene YDR115W): 1.3 | The level of expressed mRNA in the presence of chemical substance/The level of expressed mRNA in the absence of chemical substance (yeast gene YDR259C): 1.4 | The level of expressed mRNA in the presence of chemical substance/The level of expressed mRNA in the absence of chemical substance (yeast gene YDR315C): 1.0 | The level of expressed mRNA in the presence of chemical substance/The level of expressed mRNA in the absence of chemical substance (yeast gene YDR358W): 0.7 | The level of expressed mRNA in the presence of chemical substance/The level of expressed mRNA in the absence of chemical substance (yeast gene YDR388W): 0.7 | The level of expressed mRNA in the presence of chemical substance/The level of expressed mRNA in the absence of chemical substance (yeast gene YDR432W): 0.5 | The level of expressed mRNA in the presence of chemical substance/The level of expressed mRNA in the absence of chemical substance (yeast gene YDR481C): 0.7 | The level of expressed mRNA in the presence of chemical substance/The level of expressed mRNA in the absence of chemical substance (yeast gene YDR510W): 1.0 | The level of expressed mRNA in the presence of chemical substance/The level of expressed mRNA in the absence of chemical substance (yeast gene YEL042W): 0.6 | The level of expressed mRNA in the presence of chemical substance/The level of expressed mRNA in the absence of chemical substance (yeast gene YEL066W): 2.0 | The level of expressed mRNA in the presence of chemical substance/The level of expressed mRNA in the absence of chemical substance (yeast gene YER039C): 1.0 | The level of expressed mRNA in the presence of chemical substance/The level of expressed mRNA in the absence of chemical substance (yeast gene YER107C): 0.9 | The level of expressed mRNA in the presence of chemical substance/The level of expressed mRNA in the absence of chemical substance (yeast gene YER130C): 0.9 | The level of expressed mRNA in the presence of chemical substance/The level of expressed mRNA in the absence of chemical substance (yeast gene YFL022C): 0.8 | The level of expressed mRNA in the presence of chemical substance/The level of expressed mRNA in the absence of chemical substance (yeast gene YFL028C): 1.2 | The level of expressed mRNA in the presence of chemical substance/The level of expressed mRNA in the absence of chemical substance (yeast gene YFL043C): 1.0 | The level of expressed mRNA in the presence of chemical substance/The level of expressed mRNA in the absence of chemical substance (yeast gene YGL158W): 1.1 | The level of expressed mRNA in the presence of chemical substance/The level of expressed mRNA in the absence of chemical substance (yeast gene YGL229C): 0.6 | The level of expressed mRNA in the presence of chemical substance/The level of expressed mRNA in the absence of chemical substance (yeast gene YGR136W): 0.9 | The level of expressed mRNA in the presence of chemical substance/The level of expressed mRNA in the absence of chemical substance (yeast gene YGR189C): 1.1 | The level of expressed mRNA in the presence of chemical substance/The level of expressed mRNA in the absence of chemical substance (yeast gene YGR213C): 5.4 | The level of expressed mRNA in the presence of chemical substance/The level of expressed mRNA in the absence of chemical substance (yeast gene YGR257C): 0.7 | The level of expressed mRNA in the presence of chemical substance/The level of expressed mRNA in the absence of chemical substance (yeast gene YHR004C): 0.9 | The level of expressed mRNA in the presence of chemical substance/The level of expressed mRNA in the absence of chemical substance (yeast gene YHR071W): 1.5 | The level of expressed mRNA in the presence of chemical substance/The level of expressed mRNA in the absence of chemical substance (yeast gene YHR139C): 3.0 | The level of expressed mRNA in the presence of chemical substance/The level of expressed mRNA in the absence of chemical substance (yeast gene YHR142W): 1.5 | The level of expressed mRNA in the presence of chemical substance/The level of expressed mRNA in the absence of chemical substance (yeast gene YIL123W): 1.0 | The level of expressed mRNA in the presence of chemical substance/The level of expressed mRNA in the absence of chemical substance (yeast gene YIL140W): 0.7 | The level of expressed mRNA in the presence of chemical substance/The level of expressed mRNA in the absence of chemical substance (yeast gene YJL073W): 0.8 | The level of expressed mRNA in the presence of chemical substance/The level of expressed mRNA in the absence of chemical substance (yeast gene YJL089W): 1.1 | The level of expressed mRNA in the presence of chemical substance/The level of expressed mRNA in the absence of chemical substance (yeast gene YJL116C): 0.9 | The level of expressed mRNA in the presence of chemical substance/The level of expressed mRNA in the absence of chemical substance (yeast gene YJR004C): 0.2 | The level of expressed mRNA in the presence of chemical substance/The level of expressed mRNA in the absence of chemical substance (yeast gene YJR086W): 1.2
